Read-outs that look alike come from different tables or passages of the source. Where only a bound is given, the exact number is not on record here.

In data set [1] the test system is NCI-H358 subcutaneous xenograft tumors. Put plainly: NCI-H358 mouse xenograft model.
Description: NCI-H358 cells were injected subcutaneously (5×10^6 cells in 0.1 mL of PBS) into the right flanks of 6-8-week-old female BALB/c nude mice and allowed to grow until the average tumor size reached 150-200 mm^3. The mice were then stratified into treatment groups of 4-8 animals and treatment initiated on Day 0. Test compound or vehicle (1% Tween 80, 2% HPMC, and 97% water) was administered orally, once daily, for 21 days. Tumor size was measured twice weekly in two dimensions using a caliper, and the volume was expressed in mm^3 using the formula: V=(a×b^2/2) where a and b are the long and short diameters of the tumor, respectively. Tumor Growth Inhibition (TGI) was calculated for each group using the formula: TGI %=(1−Ti/Vi)×100, where Ti is the mean tumor volume of the treatment group on the measurement day, and Vi is the mean tumor volume of the control group on the measurement day. Animal body weight was monitored regularly as an indicator of toxicity. […] Data points represent the group mean, and error bars represent the standard error of the mean (SEM).
In the next data set the test system is NCI-H358 cells. Put plainly: 3D cell proliferation assay (Cell Titer-Glo 3D, 7 days). The class given is cell-based. To be noted: Homo sapiens, NCI-H358, 168 h, NCI-H358 3D, ultra-low attachment plate. Here is the method: NCI-H358 cells (ATCC® CRL-5807™) were plated in a 384-well Black/Clear Round Bottom Ultra-Low Attachment Microplate (Corning) in medium (RPMI-1640+10% FBS) at a density of 1000 cells in 50 μL per well, then incubated overnight at 37° C. and 5% CO2. Cells were treated with test compounds at 9 concentrations within a specified concentration range (e.g., 0.5 nM-10 μM) for generation of dose response curves. Test compounds were prepared by 1:3 serial dilution in DMSO from a specified starting concentration (e.g., 20 μM, 2 μM or 0.2 μM) and then added to wells of the assay plate in a total volume of 150 nL DMSO. The cells were further incubated at 37° C. and 5% CO2 for 7 days. Cell viability was assessed by adding 40 μL of Cell Titer-Glo® 3D reagent (Cat. No.: G9683, Promega) to each well and reading luminescence after mixing and incubation of the samples. The IC50 value of each test compound was calculated with XLFit curve fitting software.

The subject of data set [2] is MIA PaCa-2 subcutaneous xenograft tumors.
Description: MIA PaCa-2 cells were injected subcutaneously (10×10^6 cells in 0.2 mL of PBS with Matrigel (1:1)) into the right flanks of 6-8-week-old female BALB/c nude mice and allowed to grow until the average tumor size reached 150-200 mm^3. The mice were then stratified into treatment groups of 8 animals and treatment initiated on Day 0. Test compound or vehicle (1% Tween 80, 2% HPMC, and 97% water) was administered orally, once daily, for 14 days with an observational phase to monitor tumor growth post-treatment. Tumor size was measured twice weekly in two dimensions using a caliper, and the volume was expressed in mm^3 using the formula: V=(a×b^2/2) where a and b are the long and short diameters of the tumor, respectively. Tumor Growth Inhibition (TGI) was calculated for each group using the formula: TGI %=(1−Ti/Vi)×100, where Ti is the mean tumor volume of the treatment group on the measurement day, and Vi is the mean tumor volume of the control group on the measurement day. Animal body weight was monitored regularly as an indicator of toxicity. […] Data points represent the group mean, and error bars represent the standard error of the mean (SEM).

With `C=C(F)C(=O)N1CCN(c2nc(OC[C@@H]3CCCN3C)nc3c2CO[C@@H](c2cccc4cccc(Cl)c24)C3)C[C@@H]1CC#N` (single isomer, unassigned) [43 (Isomer B)], the tumour growth inhibition (TGI) – broadly, how far tumour growth fell short of that in controls – in data set [1] (10 mg/kg orally once daily, Day 20 after treatment start) amounted to 15.1%; in data set [1] (30 mg/kg orally once daily, Day 20 after treatment start (day not restated for comparators)), 43.6%; in data set [1] (100 mg/kg orally once daily, Day 20 after treatment start) it was 94.6%; in data set [2] (10 mg/kg orally once daily, Day 14 after treatment start) it was 9.0%; in data set [2] (30 mg/kg orally once daily, Day 14 after treatment start (day not restated for comparator)), 75.5%; in data set [2] (100 mg/kg orally once daily, Day 14 after treatment start), 94.6%. Further, the “tolerability (from body weight)” value in data set [1] (10, 30 and 100 mg/kg orally once daily for 21 days) is reported as “well-tolerated”; in data set [2] (orally once daily for 14 days), “well-tolerated”. The same compound showed a weight loss in data set [1] (none of the mice greater than this, 10, 30 and 100 mg/kg once daily) of no more than 10%. Further, in the data set on NCI-H358 cells, the concentration for half-maximal inhibition (IC50) (as a rule, the midpoint of a concentration-inhibition curve) was no more than 100 nM.

The values are drawn from patent US20230023009A1, “HETEROCYCLIC COMPOUNDS AND METHODS OF USE THEREOF” (SPARCBIO LLC, priority 2020, published 2023).
